Results on 11 compounds are retold here after ChEMBL document CHEMBL3259593, “Development of [(3)H]2-Carboxy-4,6-dichloro-1H-indole-3-propionic Acid ([(3)H]PSB-12150): A Useful Tool for Studying GPR17” (ACS Med Chem Lett, 2014).

Test [1] has as its target T1, Uracil nucleotide/cysteinyl leukotriene receptor (Homo sapiens, UniProt Q13304). Kind of test: biochemical.
Description: Displacement of [3H]PSB-12150 from human GPR17 expressed in CHO-K1 cell membranes after 60 mins by heterologous competition binding assay
Test [2] concerns the target T1, Uracil nucleotide/cysteinyl leukotriene receptor. The test is described as follows: Displacement of [3H]PSB-12150 from human GPR17 expressed in CHO-K1 cell membranes up to 1 mM after 60 mins by liquid scintillation counting. Background: In a radioligand displacement assay an active substance lowers the binding of a labelled ligand.
For test [3] the target is unchanged. The note with it: CHO-K1, 100 uM.
Description: Displacement of [3H]PSB-12150 from human GPR17 expressed in CHO-K1 cell membranes assessed as association half life at 100 uM by liquid scintillation counting
Test [4] shares this target. The test is described as follows: Displacement of [3H]PSB-12150 from human GPR17 expressed in CHO-K1 cell membranes after 60 mins by competition binding assay.
Test [5] has the same target. The test is described as follows: Displacement of [3H]PSB-12150 from human GPR17 expressed in CHO-K1 cell membranes after 60 mins by homologous competition binding assay in presence of pranlukast.
Test [6] shares this target. The conditions noted are these: CHO-K1, 100 uM. The source holds these as a separate data set.
Description: Displacement of [3H]PSB-12150 from human GPR17 expressed in CHO-K1 cell membranes assessed as dissociation half life at 100 uM treated after 1 hr incubation with radioligand by liquid scintillation counting
Test [7] has the same target. Kind of test: Displacement of [3H]PSB-12150 from human GPR17 expressed in CHO-K1 cell membranes at 100 uM after 60 mins by liquid scintillation counting.
For test [8] the target is unchanged. Kind of test: Displacement of [3H]PSB-12150 from human GPR17 expressed in CHO-K1 cell membranes up to 1 uM after 60 mins by liquid scintillation counting.
Test [9] has the same target. The test is described as follows: Binding affinity to human GPR17 expressed in CHO-K1 cell membranes after 60 mins by saturation curve study.

pKd, pKi: −log10 of the molar value. The source made the active and inactive calls. The rule behind the calls is not given here.

T1 sequence (Q13304 whole entry): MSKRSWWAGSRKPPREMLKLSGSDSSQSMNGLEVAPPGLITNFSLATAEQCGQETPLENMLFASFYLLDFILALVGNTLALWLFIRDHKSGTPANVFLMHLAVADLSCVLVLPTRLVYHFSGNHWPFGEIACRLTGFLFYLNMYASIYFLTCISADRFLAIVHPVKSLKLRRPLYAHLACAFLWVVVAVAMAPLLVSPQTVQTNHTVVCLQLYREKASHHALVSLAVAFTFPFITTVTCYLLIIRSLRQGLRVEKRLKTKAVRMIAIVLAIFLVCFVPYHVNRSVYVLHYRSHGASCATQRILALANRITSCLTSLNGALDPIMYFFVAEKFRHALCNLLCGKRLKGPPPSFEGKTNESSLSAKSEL

As usually defined, the pKi is the Ki on a negative log10 scale, so that one unit is a factor of ten. Compound `O=C(/C=C/c1c(C(=O)O)[nH]c2cc(Cl)cc(Cl)c12)Nc1ccccc1` [GAVESTINEL] showed a negative-log Ki (pKi) in [1] of 5.79.
In the case of `O=c1ccn([C@@H]2O[C@H](COP(=O)(O)OP(=O)(O)O)[C@@H](O)[C@H]2O)c(=O)[nH]1`, the result in test [2] was inactive.
With `O=C(O)CCc1c(C(=O)O)[nH]c2cc(Cl)cc(Cl)c12`, the figures for the T1/2 in test [3] and in test [6] were 1.8 min and 0.3 min, respectively. Also, the negative-log Ki (pKi) in test [4] was 5.63; in [5], 5.92.
With `Nc1ncnc2c1ncn2[C@@H]1O[C@H](COP(=O)(O)OP(=O)(O)OP(=O)(O)O)[C@@H](O)[C@H]1O`, the result in test [2] was inactive.
Regarding `Nc1ncnc2c1ncn2[C@@H]1O[C@H](COP(=O)(O)OP(=O)(O)O)[C@@H](O)[C@H]1O`, the result in test [2] was inactive.
In [1], `O=C(Nc1cccc2c(=O)cc(-c3nnn[nH]3)oc12)c1ccc(OCCCCc2ccccc2)cc1` [PRANLUKAST] had a pKi of 5.39.
With `Nc1nc(=O)c2ncn([C@@H]3O[C@H](COP(=O)(O)OP(=O)(O)OP(=O)(O)O)[C@@H](O)C3O)c2[nH]1` (single isomer, unassigned), the outcome in test [7] was Active.
Turning to `CCCCC/C=C\C\C=C/C=C/C=C/[C@@H](SCC(NC(=O)CC[C@H](N)C(=O)O)C(=O)NCC(=O)O)[C@@H](O)CCCC(=O)O` (single isomer, unassigned), the result in [8] was inactive.
For orientation: pKd means the Kd on a negative log10 scale, so that one unit is a factor of ten. Higher therefore signals a small Kd. Take `[3H]C([3H])(C(=O)O)C([3H])([3H])c1c(C(=O)O)[nH]c2cc(Cl)cc(Cl)c12`: the pKd in test [9] is 5.90.
Consider `O=c1ccn([C@@H]2O[C@H](COP(=O)(O)OP(=O)(O)OP(=O)(O)O)[C@@H](O)[C@H]2O)c(=O)[nH]1`, for which the outcome in [2] was inactive.
`CC(C)(O)c1ccccc1CC[C@@H](SCC1(CC(=O)O)CC1)c1cccc(/C=C/c2ccc3ccc(Cl)cc3n2)c1` [MONTELUKAST] had a negative logarithm of the Ki (pKi) in [1] of 5.18.
